This is an account of results in paper PMC7531004, “Discovery of gramicidin A analogues with altered activities by multidimensional screening of a one-bead-one-compound library” (Nature Communications, 2020).

For data set [1], the system named is Streptococcus pyogenes SSI-9. The data set is described as follows: Antibacterial activity assay of bead-derived peptides (three concentrations). The format is cell-based. Also noted: key: +++: inhibition by the 640-fold diluted peptide solution; ++: inhibition by the 160-fold diluted solution; +: inhibition by the 40-fold diluted solution; -: no inhibition. Conditions: S. pyogenes, bead-derived peptide solution, three concentrations. In short, it runs like this:
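Growth inhibition scored visually as precipitated bacteria after 37 °C, 18 h incubation. Streptococcus pyogenes SSI-9 inoculum of 2 × 10^5 CFU in Ca2+/Mg2+-adjusted Mueller Hinton broth plus 5% laked horse blood; peptides tested at three levels: stock, 4-fold and 16-fold DMSO dilutions.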

Data set [2] in a line: H+/Na+ transport assay of bead-derived peptides (one-point).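 Note: relative to parent gramicidin A activity set to 1.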 Type of data set: biochemical. Also noted: key: relative activity; mean of two control wells = 1.00. Conditions: bead-derived peptide solution, EYPC/EYPG LUVs. In short, it runs like this: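 Values are normalized fluorescence, with Triton X-100 defining 100% and untreated LUVs 0%, and the two control wells averaging 1.00. Vesicles carried 1.0 mM pyranine and included egg yolk phosphatidylglycerol. Peptides were incubated with them 30 min at room temperature.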

In data set [3] the test system is P388 mouse leukemia cells. Conditions: 92 h. In short, it runs like this: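 Peptide stocks diluted 250× in growth medium; P388 cells 1 × 10^4 cells/mL final; 37 °C, 5% CO2, 92 h. WST-1 + 1-methoxy PMS, 4 h, A415. Output: % viability.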

Where a SMILES comes first, the peptide text is derived from it. [ ]: non-standard residue; d: D form. The star is where a group is joined. NHCH2CH2OH = OCCN*; For = O=C*

On to `CC(C)C[C@@H](NC(=O)[C@H](Cc1c[nH]c2ccccc12)NC(=O)[C@H](NC(=O)[C@@H](NC(=O)[C@H](NC(=O)[C@H](C)NC(=O)[C@H](NC(=O)[C@H](C)NC(=O)CNC(=O)[C@@H](NC=O)C(C)C)C(C)C)C(C)C)C(C)C)[C@H](C)O)C(=O)N[C@@H](Cc1c[nH]c2ccccc12)C(=O)N[C@@H](C(=O)N[C@@H](Cc1c[nH]c2ccccc12)C(=O)N[C@@H](C(=O)N[C@@H](Cc1c[nH]c2ccccc12)C(=O)NCCO)C(C)C)C(C)C` [compound 8596] (For-VGA[dV]A[dV]V[dT]W[dL]W[dV]W[dV]W-NHCH2CH2OH), for which the antibacterial activity entry in data set [1] is “-”. The “H+/Na+ transport activity normalized against the value of 1 (1.00)” value (“H+/Na+ transport activity normalized” for short) in data set [2] was 1.07. This compound returned a cell viability/% in data set [3] of 56.2%.
`CNC(=O)C[C@@H](NC(=O)[C@@H](NC(=O)[C@@H](CC(C)C)NC(=O)[C@H](C)NC(=O)[C@@H](CC(C)C)NC(=O)[C@H](C)NC(=O)CNC(=O)[C@@H](NC=O)C(C)C)C(C)C)C(=O)N[C@@H](Cc1c[nH]c2ccccc12)C(=O)N[C@H](CC(C)C)C(=O)N[C@@H](Cc1c[nH]c2ccccc12)C(=O)N[C@@H](C(=O)N[C@@H](Cc1c[nH]c2ccccc12)C(=O)N[C@H](CC(C)C)C(=O)N[C@@H](Cc1c[nH]c2ccccc12)C(=O)NCCO)C(C)C` [compound 8600] (For-VGA[dL]A[dL]V[dD](NHMe)W[dL]W[dV]W[dL]W-NHCH2CH2OH): the antibacterial activity result in data set [1] is reported as “-”. Further, the “H+/Na+ transport activity normalized” value in data set [2] worked out at 1.20. For the same compound, in data set [3], the cell viability/% is reported as 55.3%.
Taken in the same sequence, the figures for `CC(C)C[C@@H](NC(=O)[C@H](Cc1c[nH]c2ccccc12)NC(=O)[C@H](NC(=O)[C@H](Cc1c[nH]c2ccccc12)NC(=O)[C@H](NC(=O)[C@H](Cc1c[nH]c2ccccc12)NC(=O)[C@@H](CC(C)C)NC(=O)[C@@H](NC(=O)[C@H](NC(=O)[C@H](C)NC(=O)[C@H](NC(=O)[C@H](C)NC(=O)CNC(=O)[C@@H](NC=O)C(C)C)C(C)C)C(C)C)C(C)C)C(C)C)[C@H](C)O)C(=O)N[C@@H](Cc1c[nH]c2ccccc12)C(=O)NCCO` [compound 8633] (For-VGA[dV]A[dV]V[dL]W[dV]W[dT]W[dL]W-NHCH2CH2OH) were “-”, 1.00 and 61.8%.
For `CC(C)C[C@@H](NC(=O)[C@H](C)NC(=O)CNC(=O)[C@@H](NC=O)C(C)C)C(=O)N[C@@H](C)C(=O)N[C@H](CC(C)C)C(=O)N[C@H](C(=O)N[C@H](CC(C)C)C(=O)N[C@@H](Cc1c[nH]c2ccccc12)C(=O)N[C@H](CC(C)C)C(=O)N[C@@H](Cc1c[nH]c2ccccc12)C(=O)N[C@H](CC(C)C)C(=O)N[C@@H](Cc1c[nH]c2ccccc12)C(=O)N[C@@H](C(=O)N[C@@H](Cc1c[nH]c2ccccc12)C(=O)NCCO)C(C)C)C(C)C` [compound 8635] (For-VGA[dL]A[dL]V[dL]W[dL]W[dL]W[dV]W-NHCH2CH2OH), in that order: “+”, 1.05 and 6.4%.
Taken in the same sequence, the figures for `CNC(=O)C[C@@H](NC(=O)[C@@H](NC(=O)[C@@H](CC(C)C)NC(=O)[C@H](C)NC(=O)[C@H](NC(=O)[C@H](C)NC(=O)CNC(=O)[C@@H](NC=O)C(C)C)C(C)C)C(C)C)C(=O)N[C@@H](Cc1c[nH]c2ccccc12)C(=O)N[C@@H](C(=O)N[C@@H](Cc1c[nH]c2ccccc12)C(=O)N[C@@H](C(=O)N[C@@H](Cc1c[nH]c2ccccc12)C(=O)N[C@@H](C(=O)N[C@@H](Cc1c[nH]c2ccccc12)C(=O)NCCO)C(C)C)C(C)C)C(C)C` [compound 8662] (For-VGA[dV]A[dL]V[dD](NHMe)W[dV]W[dV]W[dV]W-NHCH2CH2OH) were “-”, 1.08 and 61.0%.
On to `CC(C)C[C@@H](NC(=O)[C@H](C)NC(=O)[C@H](NC(=O)[C@H](C)NC(=O)CNC(=O)[C@@H](NC=O)C(C)C)[C@H](C)O)C(=O)N[C@H](C(=O)N[C@@H](C(=O)N[C@@H](Cc1c[nH]c2ccccc12)C(=O)N[C@@H](C(=O)N[C@@H](Cc1c[nH]c2ccccc12)C(=O)N[C@H](CC(C)C)C(=O)N[C@@H](Cc1c[nH]c2ccccc12)C(=O)N[C@@H](C(=O)N[C@@H](Cc1c[nH]c2ccccc12)C(=O)NCCO)C(C)C)C(C)C)C(C)C)C(C)C` [compound 8687] (For-VGA[dT]A[dL]V[dV]W[dV]W[dL]W[dV]W-NHCH2CH2OH), for which the antibacterial activity entry in data set [1] is “-”. Moreover, the “H+/Na+ transport activity normalized” value in data set [2] is reported as 1.15. This compound showed a cell viability/% in data set [3] of 66.9%.
`CC(C)C[C@@H](NC(=O)[C@H](C)NC(=O)[C@H](NC(=O)[C@H](C)NC(=O)CNC(=O)[C@@H](NC=O)C(C)C)C(C)C)C(=O)N[C@H](C(=O)N[C@@H](C(=O)N[C@@H](Cc1c[nH]c2ccccc12)C(=O)N[C@H](CC(C)C)C(=O)N[C@@H](Cc1c[nH]c2ccccc12)C(=O)N[C@@H](C(=O)N[C@@H](Cc1c[nH]c2ccccc12)C(=O)N[C@@H](C(=O)N[C@@H](Cc1c[nH]c2ccccc12)C(=O)NCCO)C(C)C)C(C)C)C(C)C)C(C)C` [compound 8697] (For-VGA[dV]A[dL]V[dV]W[dL]W[dV]W[dV]W-NHCH2CH2OH): in data set [1], the antibacterial activity entry is given as “+”. In addition, in data set [2], the “H+/Na+ transport activity normalized” value came out at 1.04. In data set [3], this compound showed a cell viability/% of 100.0%.
For `CC(C)C[C@@H](NC(=O)[C@H](C)NC(=O)CNC(=O)[C@@H](NC=O)C(C)C)C(=O)N[C@@H](C)C(=O)N[C@H](CC(C)C)C(=O)N[C@H](C(=O)N[C@H](CC(C)C)C(=O)N[C@@H](Cc1c[nH]c2ccccc12)C(=O)N[C@@H](C(=O)N[C@@H](Cc1c[nH]c2ccccc12)C(=O)N[C@@H](C(=O)N[C@@H](Cc1c[nH]c2ccccc12)C(=O)N[C@@H](C(=O)N[C@@H](Cc1c[nH]c2ccccc12)C(=O)NCCO)C(C)C)[C@H](C)O)C(C)C)C(C)C` [compound 8722] (For-VGA[dL]A[dL]V[dL]W[dV]W[dT]W[dV]W-NHCH2CH2OH), in that order: “-”, 1.09 and 70.8%.
With `CC(C)C[C@@H](NC(=O)[C@H](C)NC(=O)[C@H](NC(=O)[C@H](C)NC(=O)CNC(=O)[C@@H](NC=O)C(C)C)C(C)C)C(=O)N[C@H](C(=O)N[C@@H](C(=O)N[C@@H](Cc1c[nH]c2ccccc12)C(=O)N[C@@H](C(=O)N[C@@H](Cc1c[nH]c2ccccc12)C(=O)N[C@H](CC(C)C)C(=O)N[C@@H](Cc1c[nH]c2ccccc12)C(=O)N[C@@H](C(=O)N[C@@H](Cc1c[nH]c2ccccc12)C(=O)NCCO)[C@H](C)O)C(C)C)C(C)C)C(C)C` [compound 8731] (For-VGA[dV]A[dL]V[dV]W[dV]W[dL]W[dT]W-NHCH2CH2OH), in data set [1], the antibacterial activity result is recorded as “-”. The “H+/Na+ transport activity normalized” value in data set [2] was 1.05. In data set [3], this compound showed a cell viability/% of 71.2%.
As to `CNC(=O)C[C@@H](NC(=O)[C@@H](NC(=O)[C@H](NC(=O)[C@H](C)NC(=O)[C@@H](CC(C)C)NC(=O)[C@H](C)NC(=O)CNC(=O)[C@@H](NC=O)C(C)C)C(C)C)C(C)C)C(=O)N[C@@H](Cc1c[nH]c2ccccc12)C(=O)N[C@@H](C(=O)N[C@@H](Cc1c[nH]c2ccccc12)C(=O)N[C@H](CC(C)C)C(=O)N[C@@H](Cc1c[nH]c2ccccc12)C(=O)N[C@@H](C(=O)N[C@@H](Cc1c[nH]c2ccccc12)C(=O)NCCO)C(C)C)C(C)C` [compound 8732] (For-VGA[dL]A[dV]V[dD](NHMe)W[dV]W[dL]W[dV]W-NHCH2CH2OH), the antibacterial activity entry in data set [1] is “-”. The “H+/Na+ transport activity normalized” value in data set [2] came to 1.11. In data set [3], this compound displayed a cell viability/% of 72.4%.
For `CC(C)C[C@@H](NC(=O)[C@H](C)NC(=O)CNC(=O)[C@@H](NC=O)C(C)C)C(=O)N[C@@H](C)C(=O)N[C@H](CC(C)C)C(=O)N[C@H](C(=O)N[C@@H](C(=O)N[C@@H](Cc1c[nH]c2ccccc12)C(=O)N[C@@H](C(=O)N[C@@H](Cc1c[nH]c2ccccc12)C(=O)N[C@@H](C(=O)N[C@@H](Cc1c[nH]c2ccccc12)C(=O)N[C@@H](C(=O)N[C@@H](Cc1c[nH]c2ccccc12)C(=O)NCCO)C(C)C)[C@H](C)O)C(C)C)C(C)C)C(C)C` [compound 8749] (For-VGA[dL]A[dL]V[dV]W[dV]W[dT]W[dV]W-NHCH2CH2OH), in that order: “-”, 1.05 and 62.2%.
Taken in the same sequence, the figures for `CC(C)C[C@@H](NC(=O)[C@H](C)NC(=O)[C@H](NC(=O)[C@H](C)NC(=O)CNC(=O)[C@@H](NC=O)C(C)C)C(C)C)C(=O)N[C@H](C(=O)N[C@@H](C(=O)N[C@@H](Cc1c[nH]c2ccccc12)C(=O)N[C@H](CC(C)C)C(=O)N[C@@H](Cc1c[nH]c2ccccc12)C(=O)N[C@@H](C(=O)N[C@@H](Cc1c[nH]c2ccccc12)C(=O)N[C@@H](C(=O)N[C@@H](Cc1c[nH]c2ccccc12)C(=O)NCCO)C(C)C)C(C)C)[C@H](C)O)C(C)C` [compound 8779] (For-VGA[dV]A[dL]V[dT]W[dL]W[dV]W[dV]W-NHCH2CH2OH) were “-”, 1.07 and 40.6%.
